One block for each compound: values may come before it. Active and inactive are the calls of the source. The calls are words filed in the database; no cut-off is given here. Residues, ends and D or L forms follow the SMILES beside them. *: point of attachment. X3 = CN(C)CCCn1cc(C2=C(c3cn(CCOCC*)c4ccccc34)C(=O)NC2=O)c2ccccc21; X4 = O=C1NC(=O)C(c2cn(CCOCCOCCOC*)c3ccccc23)=C1c1c[nH]c2ccccc12; X1 = O=C1NC(=O)C(c2cn(CCOCCOCC*)c3ccccc23)=C1c1c[nH]c2ccccc12; X2 = O=C1NC(=O)C(c2cn(CCOCC*)c3ccccc23)=C1c1c[nH]c2ccccc12
Tests used:
[1] = Inhibition of Calcium/calmodulin-dependent protein kinase at 2.4 uM (No inhibition)
[2] = Inhibition of Calcium/calmodulin-dependent protein kinase at 24 uM (No inhibition)
[3] = Inhibition of Calcium/calmodulin-dependent protein kinase at 240 uM (No inhibition)
[4] = molecular target: Cyclin-dependent kinase 1/cyclin B (Homo sapiens, UniProt P06493); assay: Inhibitory concentration was determined by measuring phosphorylation of H1 histone using active human Cell division cycle 2-cyclin B complex; format: protein-complex assay
[5] = molecular target: T1, Cyclin-dependent kinase 1/cyclin B (Homo sapiens) (UniProt P06493+P14635+Q8WWL7+O95067); assay: Inhibition of Cell division cycle 2-cyclin B at 2.4 uM (No inhibition); format: protein-complex assay
[6] = molecular target: T1, Cyclin-dependent kinase 1/cyclin B (Homo sapiens); assay: Inhibition of Cell division cycle 2-cyclin B at 24 uM (Partial inhibition); format: protein-complex assay
[7] = molecular target: T2, cAMP-dependent protein kinase (PKA) (Homo sapiens) (UniProt P22694+P17612+P22612); assay: Inhibition of protein kinase A at 2.4 uM (No inhibition); format: protein assay
[8] = molecular target: T2, cAMP-dependent protein kinase (PKA) (Homo sapiens); assay: Inhibition of protein kinase A at 240 uM; format: protein assay
[9] = molecular target: T2, cAMP-dependent protein kinase (PKA) (Homo sapiens); assay: Inhibition of protein kinase A at 24 uM (partial); format: protein assay
[10] = molecular target: T3, Protein kinase C (PKC) (Homo sapiens) (UniProt O94806+P41743+P17252+P05129+Q05655+P05771+Q05513+Q02156+P24723+Q15139+Q04759); assay: Inhibition of protein kinase C at 240 uM; format: protein assay
[11] = molecular target: T3, Protein kinase C (PKC) (Homo sapiens); assay: Inhibition of protein kinase C at 24 uM; format: protein assay
[12] = molecular target: T3, Protein kinase C (PKC) (Homo sapiens); assay: Inhibition of protein kinase C at 2.4 uM; format: protein assay
[13] = molecular target: T1, Cyclin-dependent kinase 1/cyclin B (Homo sapiens); conditions: 240 uM
[14] = Inhibition of Calcium/calmodulin-dependent protein kinase at 240 uM (Partial)
[15] = molecular target: T1, Cyclin-dependent kinase 1/cyclin B (Homo sapiens); assay: Inhibition of Cell division cycle 2-cyclin B at 24 uM (No inhibition); format: protein-complex assay
[16] = molecular target: T1, Cyclin-dependent kinase 1/cyclin B (Homo sapiens); assay: Inhibition of Cell division cycle 2-cyclin B at 240 uM (Partial inhibition); format: protein-complex assay
[17] = molecular target: T2, cAMP-dependent protein kinase (PKA) (Homo sapiens); assay: Inhibition of protein kinase A at 24 uM (No inhibition); format: protein assay
[18] = molecular target: T2, cAMP-dependent protein kinase (PKA) (Homo sapiens); assay: Inhibition of protein kinase A at 240 uM (No inhibition); format: protein assay

Compound: CN(C)CCCn1cc(C2=C(c3c[nH]c4ccccc34)C(=O)NC2=O)c2ccccc21 [GF-109203]
inhibition [1]: inactive
inhibition [2]: inactive
inhibition [3]: inactive
IC50 [4]: 19 µM
inhibition [5]: inactive
inhibition [6]: Weak activity
inhibition [7]: inactive
inhibition [8]: > 75%
inhibition [9]: Weak activity
inhibition [10]: > 75%
inhibition [11]: > 75%
inhibition [12]: > 75%
inhibition [13]: > 75%

IC50 [4]: > 1000 µM
Compound: CNC(=O)[C@H](CCCCN)NC(=O)[C@H](CCCCN)NC(=O)[C@@H]1CCCN1C(=O)[C@H](CS)NC(C)=O (HELM PEPTIDE1{[ac].C.P.K.K.[CN[*:1]]}$$$$V2.0)

IC50 [4]: 285 µM
Compound: O=C1NC(=O)C(c2cn(CCOCCOCCO)c3ccccc23)=C1c1c[nH]c2ccccc12

inhibition [1]: inactive
inhibition [2]: inactive
IC50 [4]: 18 µM
inhibition [5]: inactive
inhibition [6]: Weak activity
inhibition [7]: inactive
inhibition [8]: > 75%
inhibition [9]: Weak activity
inhibition [14]: Weak activity
inhibition [13]: > 75%
Compound: O=C1NC(=O)C(c2c[nH]c3ccccc23)=C1c1c[nH]c2ccccc12 [RO-316233]

IC50 [4]: > 1000 µM
Compound: CNC(=O)[C@H](CCCCN)NC(=O)[C@H](CCCCN)NC(=O)[C@@H]1CCCN1C(=O)[C@H](CSCCOCCn1cc(C2=C(c3cn(CCCN(C)C)c4ccccc34)C(=O)NC2=O)c2ccccc21)NC(C)=O (Ac-C(X3)PKK-NHMe)

IC50 [4]: 98 µM
Compound: CNC(=O)[C@H](CCCCN)NC(=O)[C@H](CCCCN)NC(=O)[C@@H]1CCCN1C(=O)[C@H](CSCCOCCn1cc(C2=C(c3c[nH]c4ccccc34)C(=O)NC2=O)c2ccccc21)NC(C)=O (Ac-C(X2)PKK-NHMe)

IC50 [4]: 55 µM
Compound: O=C1NC(=O)C(c2cn(CCOCCOCCOCCO)c3ccccc23)=C1c1c[nH]c2ccccc12

inhibition [1]: inactive
inhibition [2]: inactive
inhibition [3]: inactive
IC50 [4]: 4 µM
inhibition [5]: inactive
inhibition [15]: inactive
inhibition [16]: Weak activity
inhibition [7]: inactive
inhibition [8]: > 75%
inhibition [17]: inactive
inhibition [10]: > 75%
inhibition [11]: > 75%
inhibition [12]: > 75%
Compound: O=C1NC(=O)C(c2cn(CCOCCO)c3ccccc23)=C1c1c[nH]c2ccccc12

IC50 [4]: > 1000 µM
Compound: CNC(=O)[C@H](CCCCN)NC(=O)[C@H](CCCCN)NC(=O)[C@@H]1CCCN1C(=O)[C@H](CSCCOCCOCCn1cc(C2=C(c3cn(CCCN(C)C)c4ccccc34)C(=O)NC2=O)c2ccccc21)NC(C)=O

IC50 [4]: 570 µM
Compound: CNC(=O)[C@H](CCCCN)NC(=O)[C@H](CCCCN)NC(=O)[C@@H]1CCCN1C(=O)[C@H](CO)NC(=O)[C@H](CSCOCCOCCOCCn1cc(C2=C(c3c[nH]c4ccccc34)C(=O)NC2=O)c2ccccc21)NC(C)=O (Ac-C(X4)SPKK-NHMe)

IC50 [4]: 31 µM
Compound: CNC(=O)[C@H](CCCCN)NC(=O)[C@H](CCCCN)NC(=O)[C@@H]1CCCN1C(=O)[C@H](CSCCOCCOCCOCCn1cc(C2=C(c3c[nH]c4ccccc34)C(=O)NC2=O)c2ccccc21)NC(C)=O

IC50 [4]: 35 µM
Compound: CN(C)CCCn1cc(C2=C(c3cn(CCOCCOCCO)c4ccccc34)C(=O)NC2=O)c2ccccc21

IC50 [4]: 220 µM
Compound: CNC(=O)[C@H](CCCCN)NC(=O)[C@H](CCCCN)NC(=O)[C@@H]1CCCN1C(=O)[C@H](CO)NC(=O)[C@H](CSCCOCCOCCn1cc(C2=C(c3c[nH]c4ccccc34)C(=O)NC2=O)c2ccccc21)NC(C)=O (Ac-C(X1)SPKK-NHMe)

IC50 [4]: 22 µM
Compound: CN(C)CCCn1cc(C2=C(c3cn(CCOCCO)c4ccccc34)C(=O)NC2=O)c2ccccc21

inhibition [1]: inactive
inhibition [2]: inactive
inhibition [3]: inactive
IC50 [4]: 4.5 µM
inhibition [5]: inactive
inhibition [15]: inactive
inhibition [16]: Weak activity
inhibition [7]: inactive
inhibition [18]: inactive
inhibition [17]: inactive
inhibition [10]: > 75%
inhibition [11]: > 75%
inhibition [12]: > 75%
Compound: CNC(=O)[C@H](CCCCN)NC(=O)[C@H](CCCCN)NC(=O)[C@@H]1CCCN1C(=O)[C@H](CSCCOCCOCCn1cc(C2=C(c3c[nH]c4ccccc34)C(=O)NC2=O)c2ccccc21)NC(C)=O (Ac-C(X1)PKK-NHMe)

From ChEMBL document CHEMBL1131359, “Design of new inhibitors for cdc2 kinase based on a multiple pseudosubstrate structure” (Bioorg Med Chem Lett, 1998)
